Reference: patent publication US7338959B2, “Diamino-pyrimidines and their use as angiogenesis inhibitors” (SmithKline Beecham Corporation, priority 2002, dated 2008)
Structures can show the parent of a compound that is named as a salt.

Columns and labels:
GST-VEGFR2 = target: T1, GST-VEGFR2 (Homo sapiens, UniProt P35968); test: VEGF-R2 enzyme assay (VEGF-E), LANCE method; format: biochemical; conditions: GST-VEGFR2, 75 uM ATP, biotinylated peptide
T1 construct: baculovirus expressed recombinant constructs of the intracellular domains of human TIE2 tagged by GST; made in house
T1 sequence (P35968 786-1356 limits assumed): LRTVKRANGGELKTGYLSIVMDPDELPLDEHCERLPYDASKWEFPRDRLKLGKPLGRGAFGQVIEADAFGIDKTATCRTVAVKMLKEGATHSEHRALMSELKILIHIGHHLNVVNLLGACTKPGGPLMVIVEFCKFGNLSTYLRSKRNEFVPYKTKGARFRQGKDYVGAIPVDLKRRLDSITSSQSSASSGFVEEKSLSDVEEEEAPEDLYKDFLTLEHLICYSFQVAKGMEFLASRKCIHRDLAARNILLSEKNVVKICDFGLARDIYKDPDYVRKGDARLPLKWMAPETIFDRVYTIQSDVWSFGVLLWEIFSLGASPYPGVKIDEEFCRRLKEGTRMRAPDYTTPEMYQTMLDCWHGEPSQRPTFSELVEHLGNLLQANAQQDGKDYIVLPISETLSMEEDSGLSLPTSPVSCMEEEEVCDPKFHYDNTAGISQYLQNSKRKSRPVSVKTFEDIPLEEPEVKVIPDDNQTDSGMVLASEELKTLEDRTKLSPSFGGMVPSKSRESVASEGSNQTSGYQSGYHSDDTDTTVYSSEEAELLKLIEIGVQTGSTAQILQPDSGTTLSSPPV
Source text: VEGF-R2 Enzyme Assay (VEGF-E)
The VEGF enzyme assay used the LANCE method (Wallac) and GST-VEGFR2, baculovirus expressed recombinant constructs of the intracellular domains of human TIE2 tagged by GST. The method measured the ability of the purified enzymes to catalyse the transfer of the γ-phosphate from ATP onto tyrosine residues in a biotinylated synthetic peptide, (biotin-aminohexyl-EEEEYFELVAKKKK-NH2). This peptide phosphorylation was detected using the following procedure: GST-VEGFR2 was incubated for 40-60 mins at room temperature with 75 uM ATP, 5 mM MgCl2, 0.1 mM DTT, 0.1 mg/mL BSA and the test compound (diluted from a 10 mM stock in DMSO for desired concentration) in 100 mM HEPES buffer. The reaction was stopped by the addition of EDTA (final concentration 50 mM). Streptavidin linked-APC (allophycocyanin, Molecular Probe) and Europium-labeled anti-phosphorylated tyrosine antibody (Wallac) were then added at the final concentration of 15 nM and 1 nM, respectively. The APC signal was measured using an ARVO multilabel counter (Wallac Berthold, Japan). The percent inhibition of activity was calculated relative to blank control wells. The concentration of test compound that inhibits 50% of activity (IC50) was interpolated using nonlinear regression (Levernberg-Marquardt) and the equation, y=Vmax (1−x/(K+x))+Y2, where “K” was equal to the IC50. The IC50 values were converted to pIC50 values, i.e., −log IC50 in Molar concentration.

[1] = tested on: Human umbilical cord endothelial cells (HUVEC); test: VEGF-driven cellular proliferation assay: BrdU incorporation assay (VEGF-C); format: cell-based; conditions: 20 ng/ml VEGF
Procedure: VEGF-Driven Cellular Proliferation Assay: BrdU Incorporation Assay (VEGF-C)
Human umbilical cord endothelial cells (HUVEC, Clonetics, CC2519) were passaged in Type I collagen-coated 100-mm petridishes in EGM-MV medium (Clonetics, CC3125) at 37 C in a humidified 5% CO2, 95% air incubator. (HUVEC passaged more than 6 times in vitro were discarded and not subjected to assaying.) The cells were harvested using trypsin/EDTA, counted using a haemocytometer and plated at 5000 cells/well in a Type I-collagen coated 96-well plate (Becton Dickinson, 354407) in M199 medium (Gibco BRL, 12340-030) containing 5% FBS (Hyclone, A 1115-L) and gentamicin (at 50 ug/ml, Gibco BRL). After incubation overnight at 37° C., the media were replaced with 100 ul of M199 serum-free medium containing compounds at various concentrations with 0.6% DMSO and gentamicin. The compounds were diluted in serum-free M199 medium from 10 mM stock solutions prepared in 100% DMSO. After a 30 min incubation at 37° C., the cells were fed with 100 ul of serum-free M199 medium containing gentamicin, 0.2% culture-grade bovine serum albumin (BSA, Sigma A1993) and 20 ng/ml of VEGF (REtD systems, 293-VE) or 0.6 ng/ml of basic FGF (REtD systems, 233-FB), and cultured at 37° C. for another 24 h. The cells were pulsed with bromodeoxyuridine (BrdU at 10 uM in serum-free M199) at 37° C. for an additional 24 h. The incorporation of BrdU into the proliferating HUVEC were analyzed using BrdU Cell Proliferation ELISA (Roche Molecular Biochemicals, 1647229) according to the manufacturer's protocols. The optical density at 450 nm was measured with a multilabel counter (ARVO SX, Wallac). The percent inhibition of cell growth was calculated relative to blank control wells. The concentration of test compound that inhibits 50% of cell growth (IC50) was interpolated using nonlinear regression (Levernberg-Marquardt) and the equation, y=Vmax (1−x/(K+x))+Y2, where “K” was equal to the IC50. The IC50 values were converted to pIC50 values, i.e., −log IC50 in Molar concentration.

Recombinant GST-Tie2 = Recombinant GST-Tie2 (Homo sapiens, UniProt Q02763); test: Tie2 fluorescence polarization kinase activity assay (TIE2-FP); format: biochemical; conditions: activated Tie2, 200 μM ATP, peptide substrate
Recombinant GST-Tie2, sequence (Q02763 23-1124): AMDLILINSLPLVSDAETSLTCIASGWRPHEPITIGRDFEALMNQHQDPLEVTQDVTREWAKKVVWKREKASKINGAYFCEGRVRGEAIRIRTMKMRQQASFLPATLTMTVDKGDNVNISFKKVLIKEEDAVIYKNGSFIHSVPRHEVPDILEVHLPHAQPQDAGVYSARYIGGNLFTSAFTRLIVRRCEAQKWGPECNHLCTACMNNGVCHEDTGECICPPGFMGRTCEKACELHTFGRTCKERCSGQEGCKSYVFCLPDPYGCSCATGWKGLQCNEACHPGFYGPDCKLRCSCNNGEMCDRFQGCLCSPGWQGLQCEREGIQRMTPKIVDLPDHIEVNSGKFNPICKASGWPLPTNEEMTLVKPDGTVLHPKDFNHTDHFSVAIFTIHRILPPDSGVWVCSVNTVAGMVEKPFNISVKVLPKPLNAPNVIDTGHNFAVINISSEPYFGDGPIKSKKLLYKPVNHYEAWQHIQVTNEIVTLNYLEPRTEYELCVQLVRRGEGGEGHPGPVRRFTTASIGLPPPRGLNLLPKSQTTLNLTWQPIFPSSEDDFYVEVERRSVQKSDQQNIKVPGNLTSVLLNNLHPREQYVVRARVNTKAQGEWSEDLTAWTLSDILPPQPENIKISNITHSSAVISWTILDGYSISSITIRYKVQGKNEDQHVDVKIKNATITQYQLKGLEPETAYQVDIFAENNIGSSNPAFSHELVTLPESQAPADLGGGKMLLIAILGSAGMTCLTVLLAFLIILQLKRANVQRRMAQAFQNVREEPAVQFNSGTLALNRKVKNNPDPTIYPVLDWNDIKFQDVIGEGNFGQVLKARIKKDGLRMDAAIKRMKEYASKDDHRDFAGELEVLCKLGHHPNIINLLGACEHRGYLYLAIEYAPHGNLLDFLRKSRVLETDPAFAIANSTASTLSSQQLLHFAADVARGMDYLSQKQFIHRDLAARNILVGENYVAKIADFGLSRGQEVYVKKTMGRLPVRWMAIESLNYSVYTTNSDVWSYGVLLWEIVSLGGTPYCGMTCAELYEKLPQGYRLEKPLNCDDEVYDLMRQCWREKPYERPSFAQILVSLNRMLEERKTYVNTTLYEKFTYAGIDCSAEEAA
Procedure: Tie2 Fluorescence Polarization Kinase Activity Assay: (TIE2-FP)
Activation of Recombinant Tie2 Activation:
Recombinant GST-Tie2 was activated by incubating the enzyme in 20 mM Tris-HCl, pH 7.5, 12 mM MgCl2, 100 mM NaCl, 20 μM sodium vanidate, 1 mM DTT and 300 μM ATP at room temperature for 2 hours. The activation mixture was then passed through a NAP-25 desalting column (Pharmacia Biotech cat. no. 17-0852-02) to remove the free ATP. The activated enzyme was stored as aliquots at −80° C. in 20 mM Tris-HCl, pH 7.5 and 100 mM NaCl.
The final assay conditions were 50 mM HEPES, pH 7.5, 5% DMSO (when screening compounds), 200 μM ATP, 5 mM MgCl2, 1 mM DTT, 50 μM sodium vanidate, 1 nM activated enzyme, and 200 μM peptide. IC50's of compounds were measured under subsaturating ATP (200 μM) and varing concentrations of activated Tie2 and peptide substrate (RFWKYEFWR-OH; MW 1873 Da, TFA salt). Panvera Anti-phosphotyrosine antibody (Cat#P2840) and PTK Green Tracer (Cat#P2842) were used to detect the phosphorylated peptide. Polarization was measured on a TECAN Polarion in 138-second cycles for 30 minutes at room temperature. IC50's were then determined from the % polarization using normal calculation methods.

Compound | IC50 (GST-VEGFR2) | IC50 [1] | IC50 (Recombinant GST-Tie2) | TIE2-FP (Recombinant GST-Tie2) | VEGF-E (GST-VEGFR2)
CC(C)Nc1nc2cc(N(C)c3ccnc(Nc4ccc(CS(N)(=O)=O)cc4)n3)ccc2n1C [Example 2, hydrochloride] | < 100 nM | < 100 nM |  |  | 
CONS(=O)(=O)c1cc(Nc2nccc(N(C)c3ccc4c(c3)nc(NCc3ccccc3)n4C)n2)ccc1C [Example 6, 5-({4-[[2-(Benzylamino)-1-methyl-1H-benzimidazol-5-yl](methyl)amino]pyrimidin-2-yl}amino)-N-methoxy-2-methylbenzenesulfonamide] | < 100 nM | < 100 nM |  |  | 
CN(c1ccc2c(c1)nc(NCc1ccccc1)n2C)c1ccnc(Nc2ccc(CS(C)(=O)=O)cc2)n1 [Example 4, N^2-benzyl-N^5,1-dimethyl-N^5-[2-({4-[(methylsulfonyl)methyl]phenyl}amino)pyrimidin-4-yl]-1H-benzimidazole-2,5-diamine hydrochloride] | < 100 nM | < 100 nM |  |  | 
CC(C)Nc1nc2cc(N(C)c3ccnc(Nc4ccc(CS(C)(=O)=O)cc4)n3)ccc2n1C [Example 1, N^2-isopropyl-N^5,1-dimethyl-N^5-[2-({4-[(methylsulfonyl)methyl]phenyl}amino)pyrimidin-4-yl]-1H-benzimidazole-2,5-diamine hydrochloride] | < 100 nM | < 100 nM |  |  | 
CN(c1ccc2c(c1)nc(Nc1ccccc1)n2C)c1ccnc(Nc2ccc(CS(C)(=O)=O)cc2)n1 [Example 5, N^5,1-Dimethyl-N^5-[2-({4-[(methylsulfonyl)methyl]phenyl}amino)pyrimidin-4-yl]-N^2-phenyl-1H-benzimidazole-2,5-diamine trifluoroacetic acid] | < 100 nM | < 100 nM |  |  | 
CN(c1ccc2c(c1)nc(NC(=O)Cc1cccs1)n2C)c1ccnc(Nc2ccc(CS(C)(=O)=O)cc2)n1 [Example 153] | < 100 nM |  | 1000 to 10000 nM |  | 
CN(c1ccc2c(c1)nc(Nc1cccc(F)c1)n2C)c1ccnc(Nc2ccc(CS(C)(=O)=O)cc2)n1 [Example 118] | < 100 nM |  | 100 to 1000 nM |  | 
CNc1nc2cc(N(C)c3ccnc(Nc4ccc(CS(C)(=O)=O)cc4)n3)ccc2n1C [Example 3, hydrochloride] | < 100 nM | < 100 nM |  |  | 
CN(c1ccc2c(c1)nc(NC(=O)C1(c3ccccc3)CC1)n2C)c1ccnc(Nc2ccc(CS(C)(=O)=O)cc2)n1 [Example 203, Phenylcyclopropanecarboxylic acid ({[2-(4-methanesulfonylmethyl-phenylamino)-pyrimidin-4-yl]-methyl-amino}-methyl-1H-benzoimidazol-2-yl)-amide] | < 100 nM |  | < 100 nM |  | 
CN(c1ccc2c(c1)nc(Nc1ccccc1F)n2C)c1ccnc(Nc2ccc(CS(C)(=O)=O)cc2)n1 [Example 124] | < 100 nM |  | 100 to 1000 nM |  | 
Thiophene-2-carboxylic acid ({[2-(3-methanesulfonylmethyl-phenylamino)-pyrimidin-4-yl]-methyl-amino}-methyl-1H-benzoimidazol-2-yl)-amide [Example 167] |  |  |  | + (+ = pIC50 of 5.0-6.0) | +++ (+++ = pIC50 of >7.0)
(3,5-Bis-trifluoromethyl-phenyl)-N-({[2-(3-methanesulfonylmethyl-phenylamino]-pyrimidin-4-yl]-methyl-amino}-methyl-1H-benzoimidazol-2-yl)-acetamide [Example 161] |  |  |  | + (+ = pIC50 of 5.0-6.0) | ++ (++ = pIC50 of 6.0-7.0)
CN(c1ccc2c(c1)nc(NC(=O)Cc1cccc(SC(F)(F)F)c1)n2C)c1ccnc(Nc2cccc(CS(C)(=O)=O)c2)n1 [Example 162, N-(5-{[2-(3-Methanesulfonylmethyl-phenylamino)-pyrimidin-4-yl]-methyl-amino}-1-methyl-1H-benzoimidazol-2-yl)-2-(3-trifluoromethylsulfanyl-phenyl)-acetamide] | < 100 nM |  | 1000 to 10000 nM |  | 
